System: mRNA transcript for the firefly (Photinus pyralis) luciferase gene
Assay: Mouse in vivo evaluation of efficacy (luciferase siRNA LNPs, liver luminescence)
Settings: Luc siRNA RDV, tail vein, 48 hours post dose, FIG. 1
Description: LNPs utilizing Compounds 1-44, in the nominal compositions described immediately above, were evaluated for in vivo efficacy. The siRNA targets the mRNA transcript for the firefly (Photinus pyralis) luciferase gene (Accession #M15077). […] The in vivo luciferase model employs a transgenic mouse in which the firefly luciferase coding sequence is present in all cells. ROSA26-LoxP-Stop-LoxP-Luc (LSL-Luc) transgenic mice licensed from the Dana Farber Cancer Institute are induced to express the Luciferase gene by first removing the LSL sequence with a recombinant Ad-Cre virus (Vector Biolabs). Due to the organo-tropic nature of the virus, expression is limited to the liver when delivered via tail vein injection. Luciferase expression levels in liver are quantitated by measuring light output, using an IVIS imager (Xenogen) following administration of the luciferin substrate (Caliper Life Sciences). Pre-dose luminescence levels are measured prior to administration of the RDVs. Luciferin in PBS (15 mg/mL) is intraperitoneally (IP) injected in a volume of 150 μL. After a four minute incubation period mice are anesthetized with isoflurane and placed in the IVIS imager. The RDVs (containing siRNA) in PBS vehicle were tail vein injected in a volume of 0.2 mL. […] In vivo efficacy results are expressed as % inhibition of luminescence relative to pre-dose luminescence levels. […]

Row | Compound | efficacy (% inhibition of luminescence) compared with RDV containing octyl-CLinDMA (OCD)
1 | CCCCC/C=C\C/C=C\CCCCCCCCCC(CCCCCCCCC)N(C)C (centres unmarked) [Compound 1, (20Z,23Z)—N,N-dimethylnonacosa-20,23-dien-10-amine] | Greater efficacy

Target: T1, ApoE (Macaca mulatta, UniProt Q28502)
T1 construct: from tissue; host or cells: rhesus serum
Assay: In vitro ApoE binding assay (anti-PEG capture, ApoE ELISA, stem-loop RT-PCR)
Settings: LNP 4 ug/mL in 90% rhesus serum, 37° C., 20 minutes; estimate of 500 siRNA per LNP
Description: LNPs are incubated at 37° C. in 90% rhesus serum at a final LNP concentration of 4 ug/mL. Incubation is for 20 minutes with orbital rotation. After incubation, the samples are diluted 1:20 in PBS and 100 uL of each diluted sample is aliquoted to wells of an anti-PEG antibody coated 96-well plate (Life Diagnostics Cat. No. P-0001PL. After incubation at room temperature for 1 hour, the plate is washed 5× with 300 uL PBS. After washing, 50 uL of 0.2% Triton X-100 is added to each well and the plate incubated at 37° C. for 10 minutes, followed by shaking on a plate shaker for 1 minute at 750 rpm. Samples are frozen prior to performing the ApoE ELISA and stem loop PCR analysis of samples.
An ApoE ELISA assay is performed to quantitate ApoE bound to the LNPs after incubation in rhesus serum. Anti-ApoE antibody (Milipore, Cat No. AB947) is diluted 1:1000 in PBS and 100 uL of diluted antibody is added to each well of a polystyrene high binding plate. The plate with antibody is incubated overnight at 4° C., after which the plate is washed 2× with 200 uL of PBS. Next, 200 uL of buffer containing 1% BSA and 0.05% Tween-20 in PBS (Incubation Buffer) is added to each well followed by incubation at room temperature for 1 hour. Plates are washed 5× with PBS containing 0.05% Tween-20. Frozen Triton lysis test samples are thawed and diluted 1:6 with incubation buffer and 100 uL of test sample is aliquoted to wells of the ApoE antibody plate. Incubation is for 1 hour at room temperature followed by a 5× wash with PBS containing 0.05% Tween-20. After washing, 100 uL of biotinylated anti-ApoE antibody (Mabtech, Cat. ANo. E887-biotin), diluted 1:500 in incubation buffer, is added to each well and incubated for 1 hour at room temperature, followed by a 5× wash with 0.05% Tween-20 in PBS. 100 uL per well, of Streptavidin-HPR (Thermo, Cat. No. TS-125-HR), is then added and incubated for 1 hour at room temperature. After washing 5× with 0.05% Tween-20 in PBS, 100 uL of TMB Substrate (Thermo, Cat. No. 34028) is added to each well, followed by incubation at room temperature for 20 minutes in the dark. The calorimetric reaction is slopped with 100 uL of TMB Stop Solution (KPL, Cat. No. 50-85-04) and absorbance at 450 nm is determined. An ApoE standard curve is prepared by diluting rhesus Recombinant ApoE in incubation buffer with 0.03% Triton X-100 with concentrations ranging from 100 ng/mL to 0.78 ng/mL. ApoE standards are evaluated in the ELISA in parallel to the test samples. A rhesus serum only (no LNP) control is utilized to obtain a background subtraction for non-LNP dependent ApoE signal in the ELISA.
To normalize to the ApoE bound to the amount of LNP bound to the anti-PEG antibody plate, the amount of siRNA retained in the anti-PEG antibody well is quantitated by stem-loop PCR and related to the number of siRNAs encapsulated per LNP, to give an approximate measure of total LNP particles bound per well.
The standard curve is prepared using the molecular weight of the siRNA (13693 g/mol for ApoB 17063) to calculate the copy number. The high standard should contain 10^11 copies per 3 μl. A 10-fold serial dilution is performed across a row of an assay plate until the lowest standard contains 10^2 copies per 3 μl. Dilute 0.2% Triton X-100 1:80 in water and pipette 20 uL of the diluted Triton X-100 into 10 wells of a 96 well plate. 30 uL of the serial diluted standard curve and mix are added to each well of the plate. 10 uL of the spiked standard curve is used in the reverse transcription reaction.
Triton lysates from the PEG antibody plate capture are diluted 1 to 2000 in nuclease free water. 10 uL of ‘RT-Primer Mix’ (Applied Biosystem's TaqMan MicroRNA Reverse Transcription Kit Cat. No. 4366596) is added to each well of a 96-well Micro-Amp QPCR plate (ABI Cat #N801-0560).
[…] of each test sample (diluted 1 to 2000) or spiked standard curve (above) are aliquoted into the 96-well plate. […]

T1 sequence (Q28502 19-295): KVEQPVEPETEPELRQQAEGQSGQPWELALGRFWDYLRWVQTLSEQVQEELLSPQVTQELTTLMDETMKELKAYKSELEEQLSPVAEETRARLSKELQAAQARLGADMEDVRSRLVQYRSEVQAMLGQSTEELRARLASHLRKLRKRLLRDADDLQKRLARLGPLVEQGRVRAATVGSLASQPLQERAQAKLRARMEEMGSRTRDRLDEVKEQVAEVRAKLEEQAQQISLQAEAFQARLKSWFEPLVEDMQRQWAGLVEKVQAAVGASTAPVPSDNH

Row | Compound | ApoE Molecules/LNP
2 | CCCCC/C=C\C/C=C\CCCCCCCC(CCCCCCCCC)N(C)C (centres unmarked) [Compound 8, (18Z,21Z)—N,N-dimethylheptacosa-18,21-dien-10-amine] | 4.9 Molecules/LNP
3 | CCCCC/C=C\C/C=C\CCCCCCCCCCCC(CCCCCCCC)N(C)C (centres unmarked) [Compound 16, (21Z,24Z)—N,N-dimethyltriaconta-21,24-dien-9-amine] | 3.3 Molecules/LNP
4 | CCCCCCCCCCC/C=C\CCCCC(CCCCCCCCC)N(C)C (centres unmarked) [Compound 24, (15Z)—N,N-dimethylheptacos-15-en-10-amine] | 1.2 Molecules/LNP
5 | CCCCCCCCCCCCCC/C=C\CCCC(CCCCCCCCC)N(C)C (centres unmarked) [Compound 25, (14Z)—N,N-dimethylnonacos-14-en-10-amine] | 13.7 Molecules/LNP
6 | CCCCCCCC/C=C\CCCCCCCCCC(CCCCCCCCC)N(C)C (centres unmarked) [Compound 28, (20Z)—N,N-dimethylnonacos-20-en-10-amine] | 4.7 Molecules/LNP
7 | CCCCCCCC/C=C\CCCCCCCCCCCC(CCCCCCCCC)N(C)C (centres unmarked) [Compound 29, (22Z)—N,N-dimethylhentriacont-22-en-10-amine] | 38 Molecules/LNP
8 | CCCCCCCCCC(CCCCCCCCC[C@H]1C[C@H]1CCCCCC)N(C)C (stereo partly drawn) [Compound 34, 1-[(1S,2R)-2-hexylcyclopropyl]-N,N-dimethylnonadecan-10-amine] | 2.3 Molecules/LNP
9 | CCCCC/C=C\C/C=C\CCCCCCCCC1(CCCCCCCC/C=C\C/C=C\CCCCC)OCC(CCN(C)C)O1 (centres unmarked) [Compound 45, DLinKC2DMA, reference compound] | 32.5 Molecules/LNP

Target: T2, serum ApoE (Macaca mulatta, UniProt Q28502)
T2 construct: from tissue; host or cells: rhesus monkey serum
Assay: Heparin Sepharose HI-TRAP binding assay
Parameters: species or system rhesus monkey
Settings: HI-TRAP binding upon rhesus serum incubation, 2×DPBS conditions
Description: Lipid nanoparticles (LNP) with neutral surface charge are not retained after injection onto heparin sepharose with 1× Dulbecco's phosphate buffered saline (DPBS) as the running buffer but elute in the column void volume. […] Lipid nanoparticles with surface bound ApoE bind to heparin sepharose with high affinity and are eluted only at high salt (1M NaCl).
Lipid nanoparticles were incubated at 37° C. for 20 min at a final siRNA concentration of 50 μg/mL with various concentrations of either purified or recombinant human apolipoprotein E or 0.1-50% rat/mouse/rhesus monkey/human serum in 1× Dulbccco's phosphate buffered saline (DPBS). After incubation with ApoE or serum LNP samples were diluted 10-fold using 1×DPBS and analyzed by heparin sepharose chromatography. Peak area of retained LNP (after subtraction of appropriate blank signals) is compared to total peak area of LNP control without ApoE and/or serum incubation to determine the percentage of the LNP which undergoes shift to high affinity heparin interaction after incubation with ApoE/serum.
A heparin sepharose HI-TRAP™ chromatography column (GE Healthcare; 1 mL bed volume) is equilibrated with either 1× or 2× Dulbecco's PBS; the higher 2× salt concentration is used for LNPs with higher intrinsic retention on heparin sepharose (presumably due to higher positive surface charge). • Mobile Phase A: 1× or 2×DPBS • Mobile Phase B: 1M NaCl in 10 mM sodium phosphate buffer, pH 7.0 • 100% A delivered isocratically for 10 min followed by step gradient to 100% B; hold for additional 10 min; step gradient back to 100% A and reequilibrate for additional 10 min prior to injection of next sample • Flow rate: 1 mL/min • Sample injection volume: 50 μL. • Detection: UV @260 nm HI-TRAP™ Binding Results Upon Rhesus Serum Incubation (2×DPBS Conditions)

T2 sequence (Q28502 19-295): as above

Row | Compound | % Bound
10 | CCCCC/C=C\C/C=C\CCCCCCCCC1(CCCCCCCC/C=C\C/C=C\CCCCC)OCC(CCN(C)C)O1 (centres unmarked) [Compound 45, DLinKC2DMA, reference compound] | 58%
11 | CCCCC/C=C\C/C=C\CCCCCCCCC(CCCCCCCC/C=C\C/C=C\CCCCC)OC(=O)CCCN(C)C [Compound 46, MC3, reference compound] | 7%

Source: patent publication US11413348B2, “Low molecular weight cationic lipids for oligonucleotide delivery” (SIRNA THERAPEUTICS, INC., priority 2010, dated 2022)
